The results in this text go back to patent publication US20180221329A1, “CIS- AND TRANS-SUFFRUTICOSOL D AS THERAPEUTIC AGENTS” (MIDDLE TENNESSEE STATE UNIVERSITY, priority 2015, published 2018).

Experiment [1] has as its system MCF-7 (estrogen receptor-positive human breast adenocarcinoma) cells. The experiment is described as follows: Cell proliferation assay (AlamarBlue), MCF-7. Format: cell-based. The note with it: for IC50: MCF-7, 48 h, AlamarBlue; for Selectivity: MCF-7 versus normal HMEC cells. How it is done: Cell culture. Four human cancer cell lines including A549 (lung carcinoma), BT20 (estrogen receptor-negative human breast adenocarcinoma), MCF-7 (estrogen receptor-positive human breast adenocarcinoma) and U2OS (human osteosarcoma) were purchased from American Type Culture Collection (ATCC). An A549 cell line that stably expresses Green Fluorescent Protein (GFP) was purchased from Cell BioLabs Inc. (San Diego, Calif., USA). A549, A549-GFP and BT20 cells were cultured in RPMI 1640 media (Sigma-Aldrich, St. Louis, Mo., USA), MCF7 cells were cultured in DMEM medium (ATCC, Manassas, Va., USA), and U20S cells were cultured in McCoy's 5A medium (ATCC, Manassas, Va., USA). As a control, HMEC cells (primary human mammary breast epithelial cells) were purchased from ATCC and cultured in McCoy's 5A medium. All medium contained 10% FBS (Sigma-Aldrich, St. Louis, Mo., USA) and 1% streptomycin and penicillin (Sigma-Aldrich, St. Louis, Mo., USA). These cells were incubated in a humid environment with 5% CO2 at 37° C.
Cell proliferation assay. The resazurin reduction reagent AlamarBlue (Invitrogen, Frederick, Md., USA) was used to evaluate the cytotoxicity of the compounds. Cells were plated at a density of 5×10^3 cells per well in 96-well microplates with 100 μl culture medium, and were allowed to attach for 16 h prior to treatment. Next, all the medium was replaced with medium containing the cis- or trans-suffruticosol D compounds at seven different concentrations: 320, 100, 32, 10, 3.2, 1.0, and 0.32 μM. The cells were placed in an incubator for 48 h at 37° C. Cells that were treated with medium-containing vehicle (1% DMSO) only serve as negative control. Subsequently, AlamarBlue solution was added to the medium and the cells were incubated in the CO2 incubator for 1 h. The fluorescent intensity change of the dye was measured at Ex 555 nm and Em 590 nm using a plate reader (Molecular Devices, Sunnyvale, Calif., USA). The cytotoxicity was examined by determining by IC50, the dose that inhibited 50% of cell growth, using GraphPad Prism software (GraphPad Software, La Jolla, Calif., USA).
Table 1. IC50 values of cis- and trans-suffruticosol D in selected cancer and normal cell lines. Cells were treated with various concentrations of cis- or trans-suffruticosol D for 48 h, and the viability of cells was evaluated with AlamarBlue dye.

Experiment [2] relates to NF-κB p65 nuclear translocation. The experiment is described as follows: NF-κB nuclear translocation assay (HCS). The note with it: 4 h, then TNF-α 30 min, A549. In kind it is cell-based, human. The procedure:
FIGS. 6A and 6B depict inhibition of NF-κB translocation by cis- and trans-suffruticosol D in A549 cells. A549 cells were treated with various concentrations of cis- or trans-suffruticosol D for 4 h and then stimulated with […] TNF-α for 30 min. Cells treated with TNF-α alone or the vehicle only served as controls. The NF-κB translocation index was measured by the fluorescent intensity difference between the nucleus and cytoplasm.
NF-κB nuclear translocation assay. A Multiplexed NF-κB activation HCS Kit (Thermo Scientific, Waltham, Mass., USA) was used to assess NF-κB nuclear translocation. A549 cells were pre-treated with different concentrations of cis- or trans-suffruticosol D for 4 h, then 10 ng/mL of TNF-α was added to the cells for an additional 30 min. After treatment, cells were fixed and permeabilized prior to detection. NF-κB distribution was detected by adding NF-κB p65 primary antibodies and then staining with a secondary antibody conjugated with DyLight 549 and Hoechst dye (Thermo Scientific, Waltham, Mass., USA). […] Cells were imaged using an Arrayscan VTI HCS reader (Thermo Scientific, Waltham, Mass., USA). Data on the mean difference of NF-κB fluorescent intensity between the nuclear and cytoplasmic areas were collected and analyzed by vHCS Scan software.

In experiment [1] (listed as cis-SD), `Oc1ccc(C=Cc2c3c(cc4c2[C@@H](c2cc(O)cc(O)c2)[C@H](c2ccc(O)cc2)O4)O[C@H](c2ccc(O)cc2)[C@@H]3c2cc(O)cc(O)c2)cc1` [cis-suffruticosol D] yielded an IC50 of 46.8 ± 3.3 µM and a Selectivity of 5.8. Also, the “inhibition of NF-κB activation (nuclear translocation index)” value in experiment [2] (100 μM only) is reported as “significant inhibition”.
In experiment [1] (listed as trans-SD), `Oc1ccc(/C=C/c2c3c(cc4c2[C@@H](c2cc(O)cc(O)c2)[C@H](c2ccc(O)cc2)O4)O[C@H](c2ccc(O)cc2)[C@@H]3c2cc(O)cc(O)c2)cc1` [trans-suffruticosol D] came in with an IC50 of 15.8 ± 1.6 µM and a Selectivity of 9.3. For the same compound, in experiment [2] (all the tested concentrations), the “inhibition of NF-κB activation (nuclear translocation index)” value was “significant inhibition”.
